Source: patent US8680290B2, “Isoxazoline derivatives and their use as herbicides” (Syngenta Limited, priority 2004, dated 2014)

What was measured:
[1] = test system: Monocotyledonous and dicotyledonous test plants; test: Example B1 herbicidal action, application pre-emergence (Table B1b); assay type: in vivo; details: 250 g/ha, evaluated after 4 weeks
Outline: (§1)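 Visual damage rating, 10 = plant dead and 0 = unharmed, taken at 3 weeks for post-emergence and 4 weeks for pre-emergence treatment. Application by spray of formulated aqueous solution either immediately after sowing or at 8–9 days' growth, with mono- and dicot plants kept in a greenhouse.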

[2] = test system: Monocotyledonous and dicotyledonous test plants; test: Example B1 herbicidal action, application post-emergence (Table B1a); assay type: in vivo; details: 250 g/ha, evaluated after 3 weeks, scale 0-10
Outline: as §1

Structure (SMILES) | herbicidal action (damage rating 0-10), Amaranthus [1] | herbicidal action (damage rating 0-10), Digitaria [1] | herbicidal action (damage rating 0-10), Panicum [1] | herbicidal action (damage rating 0-10), Setaria [1] | herbicidal action (damage rating 0-10), Sida [1] | herbicidal damage rating, Abutilon [2] | herbicidal damage rating, Amaranthus [2] | herbicidal damage rating, Digitaria [2] | herbicidal damage rating, Panicum [2] | herbicidal damage rating, Setaria [2] | herbicidal damage rating, Sida [2]
CC1(C)CC(S(=O)(=O)C(F)(Cl)c2ccccc2OC(F)(F)F)=NO1 (stereo not shown) [1.144] | 10 | 10 | 10 | 10 | 8 | 3 | 3 | 8 | 7 | 7 | 5
Cc1ccc(F)c(C(F)(Cl)S(=O)(=O)C2=NOC(C)(C)C2)c1F (stereo not shown) [1.146] | 8 | 10 | 10 | 10 | 5 | 5 | 3 | 8 | 5 | 6 | 2
CC1(C)CC(S(=O)(=O)C(Cl)c2cc(F)cc3c2OCOC3)=NO1 (stereo not shown) [1.147] | 5 | 10 | 10 | 9 | 0 | 2 | 3 | 7 | 8 | 0 | 0
CC1(C)CC(S(=O)(=O)C(F)(Cl)c2cccc(F)c2F)=NO1 (stereo not shown) [1.148] | 10 | 10 | 10 | 10 | 6 | 0 | 7 | 8 | 8 | 8 | 2
Cn1nc(C(F)(F)F)c(C(F)(F)S(=O)(=O)C2=NOC(C)(C)C2)c1OCC(F)(F)F [2.01] | 10 | 10 | 10 | 10 | 9 | 8 | 5 | 7 | 5 | 5 | 6
Cn1nc(C(F)(F)F)c(C(F)(F)S(=O)(=O)C2=NOC(C)(C)C2)c1Cl [2.03] | 10 | 10 | 10 | 10 | 8 | 7 | 0 | 7 | 7 | 7 | 6
Cn1nc(C(F)(F)F)c(C(Cl)S(=O)(=O)C2=NOC(C)(C)C2)c1Cl (stereo not shown) [2.05] | 5 | 9 | 10 | 10 | 8 | 4 | 0 | 3 | 7 | 0 | 3
Cn1nc(C(F)(F)F)c(C(Br)(Br)S(=O)(=O)C2=NOC(C)(C)C2)c1OCC(F)(F)F [2.09] | 10 | 10 | 10 | 10 | 8 | 7 | 7 | 8 | 8 | 7 | 2
Cn1nc(C(F)(F)F)c(C(F)(F)S(=O)(=O)C2=NOC(C)(C)C2)c1OC(F)F [2.11] | 10 | 10 | 10 | 10 | 9 | 7 | 5 | 7 | 7 | 7 | 7
Cn1nc(C(F)(F)F)c(C(F)(Cl)S(=O)(=O)C2=NOC(C)(C)C2)c1OCC(F)(F)F (stereo not shown) [2.12] | 10 | 10 | 10 | 10 | 8 | 6 | 0 | 6 | 7 | 7 | 6
Cn1nc(C(F)(F)F)c(C(Cl)(Cl)S(=O)(=O)C2=NOC(C)(C)C2)c1OCC(F)(F)F [2.13] | 10 | 10 | 10 | 10 | 7 | 6 | 7 | 5 | 7 | 8 | 7
Cn1nc(C(F)(F)F)c(C(F)(Cl)S(=O)(=O)C2=NOC(C)(C)C2)c1OC(F)F (stereo not shown) [2.14] | 10 | 10 | 10 | 10 | 9 | 7 | 8 | 7 | 7 | 4 | 7
Cn1nc(C(F)(F)F)c(C(Cl)(Cl)S(=O)(=O)C2=NOC(C)(C)C2)c1OC(F)F [2.15] | 10 | 10 | 10 | 10 | 8 | 4 | 0 | 6 | 2 | 4 | 4
Cn1nc(C(F)(F)F)c(C(Cl)S(=O)(=O)C2=NOC(C)(C)C2)c1OC(F)F (stereo not shown) [2.16] | 10 | 10 | 10 | 10 | 7 | 7 | 8 | 4 | 0 | 8 | 7
CC1(C)CC(S(=O)(=O)C(Cl)c2cccnc2Cl)=NO1 (stereo not shown) [8.01] | 5 | 8 | 8 | 5 | 0 | 3 | 0 | 0 | 3 | 0 | 3
CC1(C)CC(S(=O)(=O)C(F)c2cccnc2Cl)=NO1 (stereo not shown) [8.02] | 7 | 9 | 10 | 8 | 0 | 2 | 0 | 6 | 3 | 3 | 3
CC1(C)CC(S(=O)(=O)C(F)(Cl)c2cccnc2Cl)=NO1 (stereo not shown) [8.03] | 8 | 10 | 10 | 8 | 6 | 4 | 0 | 7 | 6 | 4 | 0
CC1(C)CC(S(=O)(=O)C(F)(F)c2cccnc2Cl)=NO1 [8.04] | 10 | 10 | 10 | 10 | 3 | 3 |  |  | 3 | 2 | 0
